# Results reported in patent US12268685B2, “Dosing regimen for injectable cetirizine” (JDP THERAPEUTICS LLC, priority 2019, dated 2025).
# Entries after “also recorded” stand apart in the source; their conditions may differ. Counter-ions that a name gives are not always drawn. Like-named read-outs stand apart in the source and are kept apart here.
# Legend:
# Sprague-Dawley rats [1] = details: Phase IV
# Sprague-Dawley rats [2] = details: rat, in vivo
# [3] = injection; cited from earlier work
# [4] = test system: adult and pediatric patients; details: cited from earlier work
# Sprague-Dawley rats [5] = test system: Sprague-Dawley rats
# Procedure: The study was conducted in four phases (Phase I, II/IIB, III and IV/IVB) via various methods of intravenous injection to rats. The intravenous route is the route of administration for the final finished product in human subjects. […] Phase III was conducted to evaluate repeat dosing using a Sponsor prepared human clinical formulation.
# Phase I (Dose escalation): The test item dose formulation was administered in an escalating dose fashion by slow intravenous injection (over approximately 2 minutes) into the tail vein using a hypodermic needle attached to a syringe. A minimum 24-hour observation period was allowed between successive doses. The dose volume was 5 mL/kg for all animals. […] The protocol is described in Table 2.
# Sprague-Dawley rats were used for all of the experiments.
# [6] = test system: subjects with acute urticaria; details: for Developed other symptoms: No / Developed other symptoms: Yes / Needed additional medication: No / Needed additional medication: Yes / Needed medication prescribed at discharge: No / Needed medication prescribed at discharge: No medication prescribed / Needed medication prescribed at discharge: Yes / Recurrence of allergic symptoms: No / Recurrence of allergic symptoms: Yes / Returned to normal activity: No / Returned to normal activity: Yes: ITT; for Patient-rated pruritus severity score, 2 Hour Change from Baseline, mean (primary efficacy measure): LOCF; for Patient-rated pruritus severity score, 2 Hour Change from Baseline, mean (primary efficacy measure) / Time spent at the treatment center, Mean (SD): acetic acid, dihydrochloride
# [7] = Sprague-Dawley, 30 mg/kg/day, 7 days
# [8] = 24 hrs after discharge, count (percentage)
# [9] = 48 hrs after discharge, count (percentage)
# [10] = ITT Population, listed as Cetirizine Injection
# [11] = ITT Population, before treatment
# [12] = ITT Population, count (percentage)
compound,measurement,setting,value
"O=C(O)COCCN1CCN(C(c2ccccc2)c2ccc(Cl)cc2)CC1 (racemic) [cetirizine dihydrochloride, (±)-[2-[4-[(4-chlorophenyl)phenylmethyl]-1-piperazinyl]ethoxy] acetic acid, dihydrochloride]",Other clinical signs,"Sprague-Dawley rats [1]; 30 mg/kg/day, as of Day 1, acetic acid, dihydrochloride, 30 mg/kg/day",Increases in activity and changes in posture (hunched back); also recorded: Changes in posture and increased activity were noted
same,Dark focus of the lungs,Sprague-Dawley rats [1]; necropsy,2/4
same,Macroscopic findings at the dosing site,Sprague-Dawley rats [1]; necropsy,no findings at the dosing site were observed
same,"Animals with findings at the dosing site (tail), dark area",Sprague-Dawley rats [2]; [7],2/10
same,Enlargement of bronchial lymph node,Sprague-Dawley rats [2]; [7],2/10
same,Animals affected by macroscopic findings at the dosing site (tail),"Sprague-Dawley rats [2]; Sprague-Dawley, 2 days",8/10
same,Dark focus/area/mottling at the dosing site,"Sprague-Dawley rats [2]; Sprague-Dawley, 2 days",8/10
same,Scab at the dosing site,"Sprague-Dawley rats [2]; Sprague-Dawley, 2 days",1/10
same,Thickening at the dosing site,"Sprague-Dawley rats [2]; Sprague-Dawley, 2 days",6/10
same,Body weight,Sprague-Dawley rats [2],no test item related effects noted
same,Hemolysis,[3],free of hemolysis
same,Most commonly reported adverse reactions in adult overdose cases,"[4]; oral doses of 70 mg to 800 mg, patients 18 to 81 years",somnolence and fatigue
same,Adverse reactions reported in pediatric overdose cases,"[4]; oral doses of 90 mg to 300 mg, patients 18 months to 15 years","somnolence, difficulty walking, agitation/irritability, hard to swallow/articulate clearly, tachycardia, vomiting, mydriasis, and elevated creatinine phosphokinase"
same,Animals found dead,"Sprague-Dawley rats [5]; Sprague-Dawley, rat, in vivo, 50 mg/kg",2/4
same,Mortality dose level as multiple of human clinical dose,"Sprague-Dawley rats [5]; Sprague-Dawley, rat, in vivo, 14 days",58 times of human clinical dose
same,Animals found dead,"Sprague-Dawley rats [5]; rat, in vivo, 100 mg/kg",¾
same,Dose levels associated with mortality,"Sprague-Dawley rats [5]; single IV injection, tail vein",≥ 50 mg/kg
same,Developed other symptoms: No,[6]; [8],108 (85.04)
same,Developed other symptoms: Yes,[6]; [8],12 (9.45)
same,Needed additional medication: No,[6]; [8],94 (74.02)
same,Needed additional medication: Yes,[6]; [8],26 (20.47)
same,Needed medication prescribed at discharge: No,[6]; [8],41 (32.28)
same,Needed medication prescribed at discharge: No medication prescribed,[6]; [8],10 (7.87)
same,Needed medication prescribed at discharge: Yes,[6]; [8],69 (54.33)
same,Recurrence of allergic symptoms: No,[6]; [8],66 (51.97)
same,Recurrence of allergic symptoms: Yes,[6]; [8],54 (42.52)
same,Returned to normal activity: No,[6]; [8],17 (13.39)
same,Returned to normal activity: Yes,[6]; [8],103 (81.10)
same,Developed other symptoms: No,[6]; [9],111 (87.40)
same,Developed other symptoms: Yes,[6]; [9],10 (7.87)
same,Needed additional medication: No,[6]; [9],102 (80.31)
same,Needed additional medication: Yes,[6]; [9],19 (14.96)
same,Needed medication prescribed at discharge: No,[6]; [9],46 (36.22)
same,Needed medication prescribed at discharge: No medication prescribed,[6]; [9],11 (8.66)
same,Needed medication prescribed at discharge: Yes,[6]; [9],64 (50.39)
same,Recurrence of allergic symptoms: No,[6]; [9],85 (66.93)
same,Recurrence of allergic symptoms: Yes,[6]; [9],36 (28.35)
same,Returned to normal activity: No,[6]; [9],9 (7.09)
same,Returned to normal activity: Yes,[6]; [9],112 (88.19)
same,Course of subject-rated sedation scores after treatment,[6]; ITT Population,returning to baseline sedation by 2 hrs
same,"Patient-rated pruritus severity score, 1 Hour Assessment, mean",[6]; ITT Population,0.81
same,"Patient-rated pruritus severity score, 1 Hour Change from Baseline, mean",[6]; ITT Population,−1.39
same,"Patient-rated pruritus severity score, 2 Hour Assessment, mean",[6]; ITT Population,0.60
same,"Patient-rated pruritus severity score, Discharge Assessment, mean",[6]; ITT Population,0.58
same,"Patient-rated pruritus severity score, Discharge Change from Baseline, mean",[6]; ITT Population,−1.62
same,"Physician-rated urticaria/erythema score, 1 Hour Assessment, mean",[6]; ITT Population,1.27
same,"Physician-rated urticaria/erythema score, 1 Hour Change from Baseline, mean",[6]; ITT Population,−0.54
same,"Physician-rated urticaria/erythema score, 2 Hour Assessment, mean",[6]; ITT Population,1.19
same,"Physician-rated urticaria/erythema score, 2 Hour Change from Baseline, mean",[6]; ITT Population,−0.63
same,"Physician-rated urticaria/erythema score, Discharge Assessment, mean",[6]; ITT Population,1.17
same,"Physician-rated urticaria/erythema score, Discharge Change from Baseline, mean",[6]; ITT Population,−0.65
same,"Subject-rated sedation score, 1 Hour Assessment, mean",[6]; ITT Population,0.62
same,"Subject-rated sedation score, 1 Hour Change from Baseline, mean",[6]; ITT Population,0.24
same,"Subject-rated sedation score, 2 Hour Assessment, mean",[6]; ITT Population,0.46
same,"Subject-rated sedation score, 2 Hour Change from Baseline, mean",[6]; ITT Population,0.08
same,"Subject-rated sedation score, Discharge Assessment, mean",[6]; ITT Population,0.46
same,"Subject-rated sedation score, Discharge Change from Baseline, mean",[6]; ITT Population,0.08
same,"Time spent at the treatment center, Median",[6]; ITT Population,1.42 h
same,Time spent at the treatment center shorter than with diphenhydramine injection,[6]; ITT Population analysis,22 min
same,"Patient-rated pruritus severity score, 2 Hour Change from Baseline, mean (primary efficacy measure)",[6]; ITT Population,−1.61 (0.944)
same,"Patient-rated pruritus severity score, 2 Hour Change from Baseline, mean (primary efficacy measure)",[6]; [10],−1.61
same,"Patient-rated pruritus severity score, Baseline Assessment, mean",[6]; [11],2.20
same,"Physician-rated urticaria/erythema score, Baseline Assessment, mean",[6]; [11],1.81
same,"Subject-rated sedation score, Baseline Assessment, mean",[6]; [11],0.39
same,Subjects who returned to the treatment center: No,[6]; [12],120 (94.49)
same,Subjects who returned to the treatment center: Yes,[6]; [12],7 (5.51)
same,"Time spent at the treatment center, Mean (SD)",[6]; [10],1.71 (0.868) Hours
same,"Time spent at the treatment center, Mean (SD)","[6]; ITT Population, listed as injectable cetirizine",1.7 (0.9) Hours
same,"Effectively treated subjects, yes","[6]; Investigator's opinion, count (percentage)",103 (81.10)
same,Time spent at the treatment center shorter than with diphenhydramine injection,[6]; PP Population analysis,27 min
same,Proportion of patients returning to any emergency department or clinic,"[6]; clinical trials, treatment group",6%
same,"Subjects needed rescue drug, yes",[6]; count (percentage),19 (14.96)
same,"Least squares estimated treatment difference, 2 hr change in pruritus severity score","[6]; diphenhydramine-cetirizine, 95% CI=−0.281, 0.396",0.06
same,Effectiveness compared to diphenhydramine injection,"[6]; non-inferiority margin −0.50, 2 hr pruritus change",non-inferior
same,"Pruritus treatment success, yes","[6]; score reduction of at least 1 unit at 2 hr, count (percentage)",110 (86.61)
